{
  "source": "patent US20100204129A1",
  "about": "“USE OF A PEPTIDE AS A THERAPEUTIC AGENT” (priority 2008, published 2010)",
  "key": {"CEM-SS cells": {"tested_on": "CEM-SS cells", "experiment": "Cytotoxicity in HIV-1 assay (MTS cell viability)", "conditions": "CEM-SS cells, cells plus peptide only; peptide 10 micrograms per ml; MTS"}, "HIV-1IIIB": {"tested_on": "HIV-1IIIB", "experiment": "HIV-1 antiviral assay (CPE reduction, MTS)", "format": "cell-based", "conditions": "peptide 10 micrograms per ml, 6 days post-infection"}, "MRC-5 cells": {"tested_on": "MRC-5 cells", "conditions": "human, 6 days", "description": "For cytotoxicity testing, MRC-5 cells were seeded at 2,500 cells/well in 96 well plates using growth medium. […] The following day, peptide was added and tested in duplicates. After a 6 days incubation period, cell viability was measured using CellTiter 96 Solution (Promega). Plates were incubated for additional 4 hours at 37° C. Adhesive plate sealers were used in place of lids, the sealed plates were inverted several times to mix the soluble formazan product and the plate was read spectrophotometrically at 490/560 nm with a Molecular Devices Vmax plate reader."}, "HCMV strain AD169": {"tested_on": "HCMV strain AD169", "experiment": "HCMV plaque reduction assay in MRC-5 cells", "conditions": "HCMV in MRC-5 cells; peptide 10 micrograms per ml; 7-10 days"}, "HepG2-2.2.15 cells": {"tested_on": "HepG2-2.2.15 cells", "conditions": "peptide 10 micrograms per ml, dye uptake assay, % cell control"}},
  "data": [
    {"compound": "Cc1cn([C@H]2C[C@H](N=[N+]=[N-])[C@@H](CO)O2)c(=O)[nH]c1=O", "note": "[AZT, reference compound]", "values": [
      {"measurement": "% Cell viability", "setting": "CEM-SS cells", "result": 97, "unit": "%"},
      {"measurement": "% CPE reduction in HIV-1 infected CEM-SS cells", "setting": "HIV-1IIIB", "result": 99, "unit": "%"}
    ]},
    {"compound": "CC(C)(C)NC(=O)[C@@H]1CN(Cc2cccnc2)CCN1C[C@@H](O)C[C@@H](Cc1ccccc1)C(=O)N[C@H]1c2ccccc2C[C@H]1O", "note": "[Indinavir, indinavir]", "values": [
      {"measurement": "% CPE reduction in HIV-1 infected CEM-SS cells", "setting": "HIV-1IIIB", "result": 100, "unit": "%"}
    ]},
    {"compound": "Nc1nc(O)c2ncn(COC(CO)CO)c2n1", "note": "[Ganciclovir, reference compound]", "values": [
      {"measurement": "% Cell viability", "setting": "MRC-5 cells", "result": 100, "unit": "%"},
      {"measurement": "% plaque reduction", "setting": "HCMV strain AD169", "result": 100, "unit": "%"}
    ]},
    {"compound": "Nc1ccn([C@@H]2CS[C@H](CO)O2)c(=O)n1", "note": "[3TC, Lamivudine, reference compound]", "values": [
      {"measurement": "% Cell viability", "setting": "HepG2-2.2.15 cells", "result": 95.8, "unit": "%"}
    ]}
  ]
}
